Experimental data published in US20220363662A1, “COMPOUNDS AS LXR AGONISTS” (Integral Biosciences Privated Limited, priority 2021, published 2022).

Target: T1, LXR beta (Homo sapiens, UniProt P55055)
T1 construct: 5 μL of 4×LXR beta-LBD was added to each well (final concentration 5 nM); purchased Thermofisher PV4658
T1 sequence (P55055 222-460 limits assumed): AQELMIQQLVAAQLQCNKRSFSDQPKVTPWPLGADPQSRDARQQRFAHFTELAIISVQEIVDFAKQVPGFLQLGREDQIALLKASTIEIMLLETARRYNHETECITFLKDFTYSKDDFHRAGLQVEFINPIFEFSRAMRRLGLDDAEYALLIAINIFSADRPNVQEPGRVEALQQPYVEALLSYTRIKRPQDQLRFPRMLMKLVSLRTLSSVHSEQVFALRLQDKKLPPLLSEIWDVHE
Test: LXR beta agonist assay (Lanthascreen TR-FRET)
Format: biochemical
Settings: LXR beta-LBD 5 nM, read-out: LXR-β EC50
Experimental: EC50 values of compounds against LXR beta were determined at Integral BioSciences (India) using Lanthascreen TR-FRET (Thermofisher, Cat #PV4658). Assay was performed in a 20 μL final volume in a Black 384-well plate (Corning, Cat #4511). Dose response curve for the compounds were prepared in duplicates with starting concentration at 30 μM and a three-fold titration was performed. The reaction buffer consisted of TR-FRET Coregulator Buffer G. To the compound dilution, 5 μL of 4×LXR beta-LBD was added to each well (final concentration 5 nM). An equal volume (5 μL) containing 4×Fl-D22/Tb-anti GST antibody (final concentration 100 nM/10 nM) was added to initiate the enzyme reaction and the reaction was incubated for 60 min at 22° C. after which the plates were read using BioTek Plate reader for TR-FRET every hour up to 4 hours.
Analysis was done using the standard curve by non-linear regression, variable slope inhibitor curve fits (Graph-Pad Prism) and EC50's of compounds were determined wherever possible.

Structure (SMILES) | EC50 [µM]
COc1cccc(C2(C(=O)N3CCC(N4CC(Nc5ccc(C(=O)N(C)C)c(Cl)c5)C4)CC3)CCCC2)c1 [Compound 1.67, 2-chloro-4-(1-(1-(1-(3-methoxyphenyl)cyclopentanecarbonyl)piperidin-4-yl)azetidin-3-ylamino)-N,N-dimethylbenzamide] | 0.995
CN(C)C(=O)c1ccc(-c2nnc(C3=CCN(C(=O)C(O)(c4ccccc4)C(F)(F)F)CC3)s2)cc1Cl (stereo not drawn) [Compound 1.68, 2-chloro-N,N-dimethyl-4-(5-(1-(3,3,3-trifluoro-2-hydroxy-2-phenylpropanoyl)-1,2,3,6-tetrahydropyridin-4-yl)-1,3,4-thiadiazol-2-yl)benzamide] | 4.58
CN(C)C(=O)c1ccc(NC2CN(C3CCN(C(=O)C45CC(C4)C5)CC3)C2)cc1Cl [Compound 1.69, 4-(1-(1-(bicyclo[1.1.1]pentane-1-carbonyl)piperidin-4-yl)azetidin-3-ylamino)-2-chloro-N,N-dimethylbenzamide] | 3.79
CN(C)C(=O)c1ccc(-c2nnc(N3CCN(S(=O)(=O)c4ccccc4Cl)CC3)s2)cc1F [Compound 1.70, 4-(5-(4-(2-chlorophenylsulfonyl)piperazin-1-yl)-1,3,4-thiadiazol-2-yl)-2-fluoro-N,N-dimethylbenzamide] | 9.77
CN(C)C(=O)c1ccc(C2CCN(C3CC4(C3)CN(C(=O)C(O)(c3ccccc3)C(F)(F)F)C4)CC2)cc1Cl (stereo not drawn) [Compound 1.80, 2-chloro-N,N-dimethyl-4-(1-(2-(3,3,3-trifluoro-2-hydroxy-2-phenylpropanoyl)-2-azaspiro[3.3]heptan-6-yl)piperidin-4-yl)benzamide] | 4.33
CN(C)C(=O)c1ccc(NC2CN(C3CC4(C3)CN(C(=O)[C@](O)(c3ccccc3)C(F)(F)F)C4)C2)cc1Cl [Compound 1.81, 2-chloro-N,N-dimethyl-4-(1-(2-((R)-3,3,3-trifluoro-2-hydroxy-2-phenylpropanoyl)-2-azaspiro[3.3]heptan-6-yl)azetidin-3-ylamino)benzamide] | 4.22
CC1CN(S(=O)(=O)c2ccccc2Cl)CCN1c1nnc(-c2ccc(C(=O)N(C)C)c(F)c2)s1 (stereo not drawn) [Compound 1.82, 4-(5-(4-(2-chlorophenylsulfonyl)-2-methylpiperazin-1-yl)-1,3,4-thiadiazol-2-yl)-2-fluoro-N,N-dimethylbenzamide] | 9.02
CC1CN(c2nnc(-c3ccc(C(=O)N(C)C)c(Cl)c3)s2)CCN1S(=O)(=O)c1ccccc1Cl (stereo not drawn) [Compound 1.83, 2-chloro-4-(5-(4-(2-chlorophenylsulfonyl)-3-methylpiperazin-1-yl)-1,3,4-thiadiazol-2-yl)-N,N-dimethylbenzamide] | 8.46
CN(C)C(=O)c1ccc(NC2CN(C3CCN(C(=O)C(O)(c4ccccc4)C(F)(F)F)CC3)C2)cc1F (stereo not drawn) [Compound 1.85, 2-fluoro-N,N-dimethyl-4-((1-(1-(3,3,3-trifluoro-2-hydroxy-2-phenylpropanoyl)piperidin-4-yl)azetidin-3-yl)amino)benzamide] | > 30
O=C(c1ccc(NC2CN(C3CCN(C(=O)C(O)(c4ccccc4)C(F)(F)F)CC3)C2)cc1Cl)N1CCCC1 (stereo not drawn) [Compound 1.88, 1-(4-(3-(3-chloro-4-(pyrrolidine-1-carbonyl)phenylamino)azetidin-1-yl)piperidin-1-yl)-3,3,3-trifluoro-2-hydroxy-2-phenylpropan-1-one] | > 30
O=C(c1ccc(NC2CN(C3CCN(C(=O)C(O)(c4ccccc4)C(F)(F)F)CC3)C2)cc1Cl)N1CCCCC1 (stereo not drawn) [Compound 1.89, 1-(4-(3-(3-chloro-4-(piperidine-1-carbonyl)phenylamino)azetidin-1-yl)piperidin-1-yl)-3,3,3-trifluoro-2-hydroxy-2-phenylpropan-1-one] | > 30
CC1CN(C(=O)c2ccc(NC3CN(C4CCN(C(=O)C(O)(c5ccccc5)C(F)(F)F)CC4)C3)cc2Cl)C1 (stereo not drawn) [Compound 1.94, 1-(4-(3-((3-chloro-4-(3-methylazetidine-1-carbonyl)phenyl)amino)azetidin-1-yl)piperidin-1-yl)-3,3,3-trifluoro-2-hydroxy-2-phenylpropan-1-one] | 6.79
O=C(NCC(F)F)c1ccc(NC2CN(C3CCN(C(=O)C(O)(c4ccccc4)C(F)(F)F)CC3)C2)cc1Cl (stereo not drawn) [Compound 1.98, 2-chloro-N-(2,2-difluoroethyl)-4-((1-(1-(3,3,3-trifluoro-2-hydroxy-2-phenylpropanoyl)piperidin-4-yl)azetidin-3-yl)amino)benzamide] | 9.8
CN(C)C(=O)c1ccc(NC2CN(C3CCN(C(=O)C(O)(C4CCCCC4)C(F)(F)F)CC3)C2)cc1Cl (stereo not drawn) [Compound 1.101, 2-chloro-4-((1-(1-(2-cyclohexyl-3,3,3-trifluoro-2-hydroxypropanoyl)piperidin-4-yl)azetidin-3-yl)amino)-N,N-dimethylbenzamide] | 4.85
O=C(c1ccc(NC2CN(C3CCN(C(=O)C(O)(c4ccccc4)C(F)(F)F)CC3)C2)cc1Cl)N1CCN(C(=O)C2CCC2)CC1 (stereo not drawn) [Compound 1.102, 1-(4-(3-((3-chloro-4-(4-(cyclobutanecarbonyl)piperazine-1-carbonyl)phenyl)amino)azetidin-1-yl)piperidin-1-yl)-3,3,3-trifluoro-2-hydroxy-2-phenylpropan-1-one] | 3.18
CC(=O)N1CCN(C(=O)c2ccc(NC3CN(C4CCN(C(=O)C(O)(c5ccccc5)C(F)(F)F)CC4)C3)cc2Cl)CC1 (stereo not drawn) [Compound 1.103, 1-(4-(3-((4-(4-acetylpiperazine-1-carbonyl)-3-chlorophenyl)amino)azetidin-1-yl)piperidin-1-yl)-3,3,3-trifluoro-2-hydroxy-2-phenylpropan-1-one] | > 30
O=C(c1ccc(NC2CN(C3CCN(C(=O)C(O)(c4ccccc4)C(F)(F)F)CC3)C2)cc1Cl)N1CC(F)(F)C1 (stereo not drawn) [Compound 1.110, 1-(4-(3-(3-chloro-4-(3,3-difluoroazetidine-1-carbonyl)phenylamino)azetidin-1-yl)piperidin-1-yl)-3,3,3-trifluoro-2-hydroxy-2-phenylpropan-1-one] | 5.71
COCCCN(C)C(=O)c1ccc(N2CCN(C3CC4(C3)CN(C(=O)C(O)(c3ccccc3)C(F)(F)F)C4)CC2)cc1Cl (stereo not drawn) [Compound 1.119, 2-chloro-N-(3-methoxypropyl)-N-methyl-4-(4-(2-(3,3,3-trifluoro-2-hydroxy-2-phenylpropanoyl)-2-azaspiro[3.3]heptan-6-yl)piperazin-1-yl)benzamide] | 2.85
CN(C)C(=O)c1c(Cl)cc(NC2CN(C3CCN(C(=O)[C@](O)(c4ccccc4)C(F)(F)F)CC3)C2)cc1Cl [Compound 1.122, (R)-2,6-dichloro-N,N-dimethyl-4-(1-(1-(3,3,3-trifluoro-2-hydroxy-2-phenylpropanoyl)piperidin-4-yl)azetidin-3-ylamino)benzamide] | 4.26
CN(C)C(=O)c1c(Cl)cc(NC2CN(C3CCN(C(=O)[C@@](O)(c4ccccc4)C(F)(F)F)CC3)C2)cc1Cl [Compound 1.123, (S)-2,6-dichloro-N,N-dimethyl-4-(1-(1-(3,3,3-trifluoro-2-hydroxy-2-phenylpropanoyl)piperidin-4-yl)azetidin-3-ylamino)benzamide] | > 27
COCCCN(C)C(=O)c1ccc(NC2CN(C3CCN(C(=O)[C@](O)(c4ccccc4)C(F)(F)F)CC3)C2)cc1Cl [Compound 1.124, (R)-2-chloro-N-(3-methoxypropyl)-N-methyl-4-(1-(1-(3,3,3-trifluoro-2-hydroxy-2-phenylpropanoyl)piperidin-4-yl)azetidin-3-ylamino)benzamide] | 1.57
